Test results: ChEMBL document CHEMBL1201862, “PubChem BioAssay data set” (2004)
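Five concentrations, 48 hours, 96-well plates. GI50: concentration for 50% inhibition of growth.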 Calls of active or inactive are those of the source. No stated cut-off is given here; in the data, active = GI50 up to about 1.1 µM and inactive = higher.

How the values were obtained:
Experiment in all cases: inhibition of tumour cell growth, NCI panel, 48 h
MDA-MB-231 = test system: MDA-MB-231
UACC-62 = test system: UACC-62
HL-60 = test system: HL-60
RPMI-8226 = test system: RPMI-8226
NCI-H226 = test system: NCI-H226
SF-539 = test system: SF-539
K562 = test system: K562
OVCAR-8 = test system: OVCAR-8
TK-10 = test system: TK-10
SK-MEL-28 = test system: SK-MEL-28
CAKI-1 = test system: CAKI-1
UO-31 = test system: UO-31
ACHN = test system: ACHN
DU-145 = test system: DU-145
KM12 = test system: KM12
NCI-H460 = test system: NCI-H460
A498 = test system: A498
SNB-75 = test system: SNB-75
NCI/ADR-RES = test system: NCI/ADR-RES
Hs-578T = test system: Hs-578T

Compound	GI50 (MDA-MB-231)	GI50 (UACC-62)	GI50 (HL-60)	GI50 (RPMI-8226)	GI50 (NCI-H226)	GI50 (SF-539)	GI50 (K562)	GI50 (OVCAR-8)	GI50 (TK-10)	GI50 (SK-MEL-28)	GI50 (CAKI-1)	GI50 (UO-31)	GI50 (ACHN)	GI50 (DU-145)	GI50 (KM12)	GI50 (NCI-H460)	GI50 (A498)	GI50 (SNB-75)	GI50 (NCI/ADR-RES)	GI50 (Hs-578T)
COc1c(-c2nc3ccc(N4CCN(C)CC4)cc3[nH]2)cc(OC)c2[nH]c(CO)nc12	74 µM (inactive)	> 100 µM (inactive)	14100 nM (inactive)	> 100 µM (inactive)	> 100 µM (inactive)	> 100 µM (inactive)	> 100 µM (inactive)	> 100 µM (inactive)	> 100 µM (inactive)	> 100 µM (inactive)	> 100 µM (inactive)	> 100 µM (inactive)	> 100 µM (inactive)	84.5 µM (inactive)	49.3 µM (inactive)	91 µM (inactive)	> 100 µM (inactive)	48.3 µM (inactive)	> 100 µM (inactive)	> 100 µM (inactive)
CN(Cc1ccccc1)Cn1ccnc1	> 56 µM (inactive)	> 100 µM (inactive)	> 38500 nM (inactive)	29.2 µM (inactive)	> 100 µM (inactive)	> 100 µM (inactive)	34.7 µM (inactive)	> 100 µM (inactive)	> 100 µM (inactive)	34.1 µM (inactive)	> 100 µM (inactive)	54.7 µM (inactive)	> 100 µM (inactive)	> 100 µM (inactive)	> 100 µM (inactive)	40.3 µM (inactive)	> 91.6 µM (inactive)	> 100 µM (inactive)	> 100 µM (inactive)	> 100 µM (inactive)
CCOC(=O)Nc1nc2cc(Cn3cccc3)ccc2[nH]1	1.57 µM (inactive)	0.828 µM (active)	270 nM (active)	0.925 µM (active)	15.8 µM (inactive)	0.865 µM (active)	0.359 µM (active)	2.39 µM (inactive)	19.5 µM (inactive)	4.89 µM (inactive)	0.873 µM (active)	14.4 µM (inactive)	5.78 µM (inactive)	1.78 µM (inactive)	0.853 µM (active)	0.802 µM (active)	1.7 µM (inactive)	0.356 µM (active)	0.387 µM (active)	0.857 µM (active)
Cc1nc2c(O)c3c(c(O)c2nc1C)C1C=CC3CC1	3.02 µM (inactive)	21.2 µM (inactive)	973 nM (active)	2.92 µM (inactive)	29.6 µM (inactive)	14.6 µM (inactive)	2.09 µM (inactive)	7.45 µM (inactive)	20.6 µM (inactive)	16.4 µM (inactive)	7.57 µM (inactive)	12 µM (inactive)	11.2 µM (inactive)	> 75.3 µM (inactive)	15.7 µM (inactive)	30.3 µM (inactive)	42.9 µM (inactive)	32.2 µM (inactive)	3.71 µM (inactive)	32.1 µM (inactive)
C=CC1(CBr)CCC(C(C)(C)Br)O1 (stereo not given)	13.2 µM (inactive)	10.3 µM (inactive)	832 nM (active)	1.79 µM (inactive)	21 µM (inactive)	16.9 µM (inactive)	3.71 µM (inactive)	2.9 µM (inactive)	15.1 µM (inactive)	7.73 µM (inactive)	7.23 µM (inactive)	12.7 µM (inactive)	16.4 µM (inactive)	10 µM (inactive)	12.2 µM (inactive)	13 µM (inactive)	19.1 µM (inactive)	5.65 µM (inactive)	10.1 µM (inactive)	12.6 µM (inactive)
CCCC(=O)Nc1cc(/C=C/C(=O)N2CC(CCl)c3c2cc(OC(C)=O)c2[nH]cc(C)c32)n(C)c1 (stereo not given)	6.44e-05 µM (active)	< 2.5e-05 µM (active)	< 0.025 nM (active)	0.000171 µM (active)	4.33e-05 µM (active)	< 2.5e-05 µM (active)	3.06e-05 µM (active)	< 2.5e-05 µM (active)	0.000363 µM (active)	4.52e-05 µM (active)	7.66e-05 µM (active)	6.84e-05 µM (active)	< 2.5e-05 µM (active)	< 2.5e-05 µM (active)	8.73e-05 µM (active)	< 2.5e-05 µM (active)	0.000116 µM (active)	5.77e-05 µM (active)	0.00024 µM (active)	6.56e-05 µM (active)
COc1cc(C2c3cc4c(cc3CC3COC(=O)N32)OCO4)cc(OC)c1OC (stereo not given)	3.71 µM (inactive)	2.61 µM (inactive)	2080 nM (inactive)	3.13 µM (inactive)	19.5 µM (inactive)	2.39 µM (inactive)	1.57 µM (inactive)	4.03 µM (inactive)	> 22.9 µM (inactive)	5.05 µM (inactive)	3.65 µM (inactive)	5.33 µM (inactive)	12.8 µM (inactive)	5.33 µM (inactive)	2.44 µM (inactive)	4 µM (inactive)	6.31 µM (inactive)	14.8 µM (inactive)	1.58 µM (inactive)	2.52 µM (inactive)
